Consider five compounds from patent publication US8067021B2, “Methods and compositions for delivery of growth factor to fibrous connective tissue” (Affinergy, Inc., priority 2007, dated 2011).

In one assay the test system is various growth factors. Briefly: Further binding studies: preference of binding for various growth factors. Conditions: latter 3 growth factors: no detectable binding. The method, then:
Since GDFs are also considered as members of the BMP family of proteins, and therefore share significant amino acid sequence homology, some binding cross-reactivity of peptides according to the presently disclosed subject matter with BMP-5 was noted. […] Further binding studies were performed from which was determined the preference of binding of peptides according to the presently disclosed subject matter for various growth factors. […] Thus peptides according to the presently disclosed subject matter show preferential binding to GDF-7, and show binding affinity for fibrous connective tissue-inducing growth factors.

A short description of assay [1]: Binding of surface-binding peptide to suture material. The following applies: braided polyethylene terephthalate fibers. The text has this:
To illustrate this embodiment, a linker was used to couple a peptide having binding affinity for a surface of an implant with a peptide having binding affinity for fibrous connective tissue-inducing growth factor. […] Similarly, peptides having amino acid sequences of SEQ ID NOs: 1-3 were used individually as representative peptides having binding affinity for fibrous connective tissue-inducing growth factor, and for inclusion as a component in a composition according to the presently disclosed subject matter.

A further assay has as its target T1, GDF-7 (Mus musculus, UniProt P43029).
T1 construct: purchased R&D SYSTEMS
T1 sequence (P43029 316-461): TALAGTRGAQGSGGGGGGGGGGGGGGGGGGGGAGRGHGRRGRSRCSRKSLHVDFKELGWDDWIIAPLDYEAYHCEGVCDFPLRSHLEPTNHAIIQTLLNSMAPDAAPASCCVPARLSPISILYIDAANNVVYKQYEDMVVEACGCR
Briefly: GDF-7 binding by composition immobilized on polyethylene terephthalate suture. Conditions: 0.5 μM of the conjugate, relative to assay background. The text has this: Using standard methods for peptide synthesis, amino acid sequences comprising SEQ ID NO:1-3 and SEQ ID NO: 67 were synthesized to contain an amino acid linker sequence (e.g., GSSGK, SEQ ID NO:72) at the C-terminus to which was linked biotin (via the lysine residue). See, for example, SEQ ID NOs: 73-76. Streptavidin (having 4 biotin binding sites) was used in conjunction with the biotin on the biotinylated peptides to form a linker between the two different peptide components. […]
Each of the three representative compositions according to the presently disclosed subject matter or the control conjugate were added individually to respective wells containing a suture and containing GDF-7 in various concentrations (starting at 100 nM final concentration for the compositions; 0.5 μM of the conjugate) with high salt buffer-T, and incubated for 1 hour at room temperature. […] It was determined in these experiments that maximal growth factor binding to the composition occurs within the first several minutes (e.g., within a time period ranging from 5 to 10 minutes), and that no additional GDF-7 appears to be retained to the surface of the implant in a time period of up to 1 hour of contact with the implant.

Where a SMILES comes first, the peptide text is derived from it. The star is where a group is joined. Biotin = O=C1N[C@H]2[C@H](CS[C@H]2CCCCC(=O)*)N1

As to `CC[C@H](C)[C@H](NC(=O)[C@H](CCC(=O)O)NC(=O)[C@H](CCCNC(=N)N)NC(=O)[C@@H]1CCCN1C(=O)CNC(=O)[C@H](CO)NC(=O)[C@@H](N)CO)C(=O)N[C@@H](Cc1c[nH]c2ccccc12)C(=O)N[C@@H](CC(=O)O)C(=O)N[C@@H](CO)C(=O)N[C@@H](CC(C)C)C(=O)N[C@H](C(=O)NCC(=O)N[C@H](C(=O)N[C@H](C(=O)N[C@@H](CC(N)=O)C(=O)N1CCC[C@H]1C(=O)NCC(=O)N[C@@H](Cc1c[nH]c2ccccc12)C(=O)N[C@@H](CO)C(=O)N[C@@H](CCCNC(=N)N)C(=O)NCC(=O)N[C@@H](CO)C(=O)N[C@@H](CO)C(=O)NCC(=O)N[C@@H](CCCCNC(=O)CCCC[C@@H]1SC[C@@H]2NC(=O)N[C@@H]21)C(N)=O)C(C)C)C(C)C)C(C)C` [SEQ ID NO: 1, ssGPREIWDSLVGVVNPGWsr] (H-SSGPREIWDSLVGVVNPGWSRGSSGK(Biotin)-NH2; N-terminus and C-terminus assumed), the “preference for binding affinity (from highest relative binding affinity to lowest)” value with various growth factors is “GDF-7>GDF-5, BMP-2>BMP-6>BMP-5>TGF-β1, TGF-β3, or PDGF-BB”.

Take `CC(C)C[C@H](NC(=O)[C@H](C)NC(=O)[C@H](Cc1c[nH]c2ccccc12)NC(=O)CNC(=O)CNC(=O)[C@@H](NC(=O)CNC(=O)CNC(=O)[C@H](CO)NC(=O)[C@@H](N)CO)C(C)C)C(=O)N[C@@H](Cc1ccccc1)C(=O)N[C@@H](CCC(=O)O)C(=O)N[C@H](C(=O)N[C@@H](CC(C)C)C(=O)N[C@@H](CCCNC(=N)N)C(=O)NCC(=O)N[C@@H](CCCCN)C(=O)N[C@@H](CCC(=O)O)C(=O)N[C@H](C(=O)N[C@@H](CO)C(=O)N[C@@H](CCCNC(=N)N)C(=O)NCC(=O)N[C@@H](CO)C(=O)N[C@@H](CO)C(=O)NCC(=O)N[C@@H](CCCCNC(=O)CCCC[C@@H]1SC[C@@H]2NC(=O)N[C@@H]21)C(N)=O)C(C)C)[C@@H](C)O` [SEQ ID NO: 2, ssGGVGGWALFETLRGKEVsr] (H-SSGGVGGWALFETLRGKEVSRGSSGK(Biotin)-NH2; N-terminus and C-terminus assumed): the “preference for binding affinity (from highest relative binding affinity to lowest)” value in the assay on various growth factors is “GDF-7>GDF-5, BMP-2, and BMP-6>BMP-5>TGF-β1, TGF-β3, or PDGF-BB”.

Regarding `CSCC[C@H](NC(=O)CNC(=O)[C@H](CCC(=O)O)NC(=O)[C@H](Cc1c[nH]c2ccccc12)NC(=O)[C@H](CO)NC(=O)[C@H](CCCNC(=N)N)NC(=O)[C@H](CC(C)C)NC(=O)[C@H](C)NC(=O)[C@H](Cc1c[nH]c2ccccc12)NC(=O)[C@H](CCC(=O)O)NC(=O)[C@H](C)NC(=O)[C@@H](NC(=O)[C@H](CO)NC(=O)[C@@H](N)CO)C(C)C)C(=O)N[C@@H](CCCNC(=N)N)C(=O)N[C@H](C(=O)NCC(=O)N[C@@H](CCC(=O)O)C(=O)N[C@@H](C)C(=O)N[C@@H](CO)C(=O)N[C@@H](CCCNC(=N)N)C(=O)NCC(=O)N[C@@H](CO)C(=O)N[C@@H](CO)C(=O)NCC(=O)N[C@@H](CCCCNC(=O)CCCC[C@@H]1SC[C@@H]2NC(=O)N[C@@H]21)C(N)=O)C(C)C` [SEQ ID NO: 3, ssVAEWALRSWEGMRVGEAsr] (H-SSVAEWALRSWEGMRVGEASRGSSGK(Biotin)-NH2; N-terminus and C-terminus assumed), the “preference for binding affinity (from highest relative binding affinity to lowest)” value in the assay on various growth factors is “GDF-7>GDF-5, BMP-2>BMP-6>BMP-5>TGF-β1, TGF-β3, or PDGF-BB”.

As to SWWGFWNGSAAPVWSR [SEQ ID NO: 67], the “binding affinity for suture material” value in assay [1] is “showed binding affinity”.

As to “peptide conjugate: negative control: biotinylated surface-binding peptide bound to streptavidin, without peptide having binding affinity for growth factor”, the “binding for GDF-7 on suture” value in the assay with GDF-7 was “no appreciable binding”.
